What was measured:
bedstraw = test: Test B pre/postemergence bedstraw; assay type: in vivo, Galium aparine; details: Postemergence
Summary of the method: (§1)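 Response is a visual 0-to-10 score relative to untreated plants, where 0 means no effect and 10 means complete control, taken twelve to sixteen days after application. Treatments went onto soil at planting and onto foliage of 1- to 4-leaf plants, using a surfactant-containing non-phytotoxic solvent.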

blackgrass = test: Test B pre/postemergence blackgrass; assay type: in vivo, Alopecurus myosuroides
Summary of the method: as §1

surinam grass = test: Test B pre/postemergence surinam grass; assay type: in vivo, Brachiaria decumbens
Summary of the method: as §1

cocklebur = test: Test B pre/postemergence cocklebur; assay type: in vivo, Xanthium strumarium
Summary of the method: as §1

corn = test: Test B pre/postemergence corn; assay type: in vivo, Zea mays
Summary of the method: as §1

crabgrass = test: Test B pre/postemergence crabgrass; assay type: in vivo, Digitaria sanguinalis
Summary of the method: as §1

giant foxtail = test: Test B pre/postemergence giant foxtail; assay type: in vivo, Setaria faberii
Summary of the method: as §1

morningglory = test: Test B pre/postemergence morningglory; assay type: in vivo, Ipomoea hederacea
Summary of the method: as §1

velvetleaf = test: Test B pre/postemergence velvetleaf; assay type: in vivo, Abutilon theophrasti
Summary of the method: as §1

wheat = test: Test B pre/postemergence wheat; assay type: in vivo, Triticum aestivum
Summary of the method: as §1

wild oat = test: Test B pre/postemergence wild oat; assay type: in vivo, Avena fatua
Summary of the method: as §1

purple nutsedge = test: Test B pre/postemergence purple nutsedge; assay type: in vivo, Cyperus rotundus
Summary of the method: as §1

rice = test: Test B flood test rice; assay type: in vivo, Oryza sativa
Summary of the method: (§2)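 Read-out is a visual response score from 0 (no effect) to 10 (complete control), assigned by comparison with untreated controls. Treatment was applied at the 2-leaf stage, and plants stayed in the greenhouse for twelve to sixteen days before scoring.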

smallflower flatsedge = test: Test B flood test smallflower flatsedge; assay type: in vivo, Cyperus difformis
Summary of the method: as §2

duck salad = test: Test B flood test duck salad; assay type: in vivo, Heteranthera limosa
Summary of the method: as §2

bamyardgrass = test: Test B flood test barnyardgrass; assay type: in vivo, Echinochloa crus-galli
Summary of the method: as §2

[1] = Postemergence, Rate 250 g/ha, scale 0 to 10
[2] = Postemergence, Rate 500 g/ha, scale of 0 to 10 where 0 is no effect and 10 is complete control
[3] = Preemergence, Rate 62 g/ha, scale 0 to 10 (0 no effect, 10 complete control)
[4] = Preemergence, Rate 125 g/ha, scale of 0 to 10 where 0 is no effect and 10 is complete control
[5] = Preemergence, Rate 250 g/ha, scale 0 to 10, 0 is no effect, 10 is complete control
[6] = Preemergence, Rate 500 g/ha, scale 0 to 10, 0 is no effect, 10 is complete control
[7] = Rate 62 g/ha, Postemergence, scale of 0 to 10 where 0 is no effect and 10 is complete control
[8] = Rate 125 g/ha, Postemergence, scale 0 to 10, 0 is no effect, 10 is complete control
[9] = Postemergence block (flood test species), Rate 250 g/ha, scale 0 to 10
[10] = Postemergence section (flood test species), Rate 500 g/ha, scale of 0 to 10 where 0 is no effect and 10 is complete control
[11] = Rate 125 g/ha, Postemergence section (flood test species), scale 0 to 10, 0 is no effect, 10 is complete control
[12] = Rate 62 g/ha, Postemergence (flood test species), scale of 0 to 10 where 0 is no effect and 10 is complete control

## CC(C)N(C(=O)n1oc(=O)n(CCC#N)c1=O)c1ccc(F)cc1F [Compound 433]
bedstraw; Rate 250 g/ha, scale 0 to 10
  Bedstraw plant response rating: 5
bedstraw; Rate 500 g/ha, scale of 0 to 10 where 0 is no effect and 10 is complete control
  Bedstraw plant response rating: 7
bedstraw; Rate 125 g/ha, scale 0 to 10, 0 is no effect, 10 is complete control
  Bedstraw plant response rating: 2
blackgrass; [1]
  Blackgrass plant response rating: 7
blackgrass; [2]
  Blackgrass plant response rating: 10
blackgrass; [3]
  Plant response rating, Blackgrass: 2
blackgrass; [4]
  Plant response rating, Blackgrass: 2
blackgrass; [5]
  Blackgrass plant response rating: 3
blackgrass; [6]
  Blackgrass plant response rating: 9
blackgrass; [7]
  Blackgrass plant response rating: 2
blackgrass; [8]
  Blackgrass plant response rating: 5
Surinam grass; Postemergence, Rate 250 g/ha, scale 0 to 10, 0 no effect, 10 complete control
  B. signalgrass plant response rating: 3
Surinam grass; [2]
  B. signalgrass plant response rating: 6
Surinam grass; [3]
  Plant response rating, B. signalgrass: 2
Surinam grass; [4]
  Plant response rating, B. signalgrass: 2
Surinam grass; [5]
  B. signalgrass plant response rating: 2
Surinam grass; [6]
  B. signalgrass plant response rating: 6
Surinam grass; [7]
  B. signalgrass plant response rating: 0
Surinam grass; [8]
  B. signalgrass plant response rating: 1
cocklebur; [1]
  Cocklebur plant response rating: 0
cocklebur; [2]
  Cocklebur plant response rating: 0
cocklebur; [3]
  Plant response rating, Cocklebur: 0
cocklebur; [4]
  Plant response rating, Cocklebur: 0
cocklebur; [5]
  Cocklebur plant response rating: 2
cocklebur; [6]
  Cocklebur plant response rating: 3
cocklebur; [7]
  Cocklebur plant response rating: 0
cocklebur; [8]
  Cocklebur plant response rating: 0
corn; [1]
  Corn plant response rating: 0
corn; [2]
  Corn plant response rating: 3
corn; [3]
  Plant response rating, Corn: 0
corn; [4]
  Plant response rating, Corn: 0
corn; [5]
  Corn plant response rating: 0
corn; [6]
  Corn plant response rating: 0
corn; [7]
  Corn plant response rating: 0
corn; [8]
  Corn plant response rating: 0
crabgrass; [1]
  Crabgrass plant response rating: 4
crabgrass; [2]
  Crabgrass plant response rating: 9
crabgrass; [3]
  Plant response rating, Crabgrass: 9
crabgrass; [4]
  Plant response rating, Crabgrass: 10
crabgrass; [5]
  Crabgrass plant response rating: 10
crabgrass; [6]
  Crabgrass plant response rating: 10
crabgrass; [7]
  Crabgrass plant response rating: 2
crabgrass; [8]
  Crabgrass plant response rating: 2
Giant foxtail; [1]
  Giant foxtail plant response rating: 6
Giant foxtail; [2]
  Giant foxtail plant response rating: 8
Giant foxtail; [3]
  Plant response rating, Giant foxtail: 10
Giant foxtail; [4]
  Plant response rating, Giant foxtail: 10
Giant foxtail; [5]
  Giant foxtail plant response rating: 10
Giant foxtail; [6]
  Giant foxtail plant response rating: 10
Giant foxtail; [7]
  Giant foxtail plant response rating: 4
Giant foxtail; [8]
  Giant foxtail plant response rating: 4
morningglory; [1]
  Morningglory plant response rating: 4
morningglory; [2]
  Morningglory plant response rating: 7
morningglory; [3]
  Plant response rating, Morningglory: 0
morningglory; [4]
  Plant response rating, Morningglory: 0
morningglory; [5]
  Morningglory plant response rating: 2
morningglory; [6]
  Morningglory plant response rating: 3
morningglory; [8]
  Morningglory plant response rating: 2
velvetleaf; [1]
  Velvetleaf plant response rating: 2
velvetleaf; [2]
  Velvetleaf plant response rating: 4
velvetleaf; [3]
  Plant response rating, Velvetleaf: 2
velvetleaf; [4]
  Plant response rating, Velvetleaf: 2
velvetleaf; [5]
  Velvetleaf plant response rating: 4
velvetleaf; [6]
  Velvetleaf plant response rating: 6
velvetleaf; [8]
  Velvetleaf plant response rating: 0
wheat; [1]
  Wheat plant response rating: 0
wheat; [2]
  Wheat plant response rating: 3
wheat; [3]
  Plant response rating, Wheat: 0
wheat; [4]
  Plant response rating, Wheat: 0
wheat; [5]
  Wheat plant response rating: 0
wheat; [6]
  Wheat plant response rating: 2
wheat; [8]
  Wheat plant response rating: 0
Wild oat; [1]
  Wild oats plant response rating: 0
Wild oat; [2]
  Wild oats plant response rating: 2
Wild oat; [3]
  Plant response rating, Wild oats: 2
Wild oat; [4]
  Plant response rating, Wild oats: 6
Wild oat; [5]
  Wild oats plant response rating: 6
Wild oat; [6]
  Wild oats plant response rating: 8
Wild oat; [8]
  Wild oats plant response rating: 0
Purple nutsedge; [1]
  Nutsedge plant response rating: 0
Purple nutsedge; [2]
  Nutsedge plant response rating: 0
Purple nutsedge; [3]
  Plant response rating, Nutsedge: 0
Purple nutsedge; [4]
  Plant response rating, Nutsedge: 0
Purple nutsedge; [5]
  Nutsedge plant response rating: 0
Purple nutsedge; [6]
  Nutsedge plant response rating: 0
Purple nutsedge; [8]
  Nutsedge plant response rating: 0
rice; [9]
  Rice plant response rating: 0
rice; [10]
  Rice plant response rating: 0
rice; [11]
  Rice plant response rating: 0
Smallflower flatsedge; [9]
  S. Flatsedge plant response rating: 0
Smallflower flatsedge; [10]
  S. Flatsedge plant response rating: 0
Smallflower flatsedge; [11]
  S. Flatsedge plant response rating: 0
Duck salad; [9]
  Ducksalad plant response rating: 0
Duck salad; [10]
  Ducksalad plant response rating: 0
Duck salad; [12]
  Ducksalad plant response rating: 0
Duck salad; [11]
  Ducksalad plant response rating: 0
bamyardgrass; [9]
  Barnyardgrass plant response rating: 0
bamyardgrass; [10]
  Barnyardgrass plant response rating: 0
bamyardgrass; [12]
  Barnyardgrass plant response rating: 0
bamyardgrass; [11]
  Barnyardgrass plant response rating: 0

— patent US6737383B1, “Herbicidal oxadiazolidines” (priority 1999, dated 2004)
